Reference: patent publication US20110224240A1 (Myrexis, Inc., priority 2010, published 2011)

Legend:
Experiment in all cases: Multidrug resistant cell assay, cytotoxicity
[1] = tested on: P388/ADR (MDR-1); assay type: cell-based; conditions: 72 hours, read-out: Various MDR Cell Line Cytotoxicity IC50
Protocol: P388/ADR cell lines were obtained from American Type Culture Collection (Manassas, Va.) and maintained in RPMI-1640 media supplemented with 10% FCS, 10 units/ml penicillin and streptomycin, 2 mM Glutamax and 1 mM sodium pyruvate (Invitrogen Corporation, Carlsbad, Calif.). […] Cells were allowed to adhere to the plate overnight and then incubated with the compound at final concentrations ranging from 0.13 nM to 10 uM for 72 hours. Cell viability was then assessed using the ATP-lite reagent (Perkin Elmer, Foster City, Calif.). Plates were read on a Wallac Topcount luminescence reader (Perkin Elmer, Foster City, Calif.) and the results graphed in Prism software (Graphpad Software, Inc., San Diego, Calif.). Non-linear regression with variable slope analysis was performed to obtain IC50 concentration values.

[2] = tested on: P388; assay type: cell-based, murine; conditions: Mus musculus; P388; 72 hours; read-out: Various MDR Cell Line Cytotoxicity IC50
[3] = tested on: MCF-7; assay type: cell-based; conditions: Homo sapiens, MCF7, 72 h, read-out: Various MDR Cell Line Cytotoxicity IC50
[4] = tested on: NCI/ADR-Res (MDR-1); conditions: 72 h, read-out: Various MDR Cell Line Cytotoxicity IC50
[5] = tested on: MCF-7/MX (BCRP-1); assay type: cell-based; conditions: MCF7/MX, 72 h, read-out: Various MDR Cell Line Cytotoxicity IC50
[6] = tested on: MCF-7/VP (MRP-1); conditions: Homo sapiens, MCF7-VP, 72 h, read-out: Various MDR Cell Line Cytotoxicity IC50

SMILES | IC50 [1] [nM] | IC50 [2] [nM] | IC50 [3] [nM] | IC50 [4] [nM] | IC50 [5] [nM] | IC50 [6] [nM]
CC(=O)O[C@@]12CO[C@@H]1C[C@H](O)[C@@]1(C)C(=O)[C@H](O)C3=C(C)[C@@H](OC(=O)[C@H](O)[C@@H](NC(=O)OC(C)(C)C)c4ccccc4)C[C@@](O)([C@@H](OC(=O)c4ccccc4)[C@H]21)C3(C)C [Docetaxel, docetaxel] | 200 | 3.3 | 13 | 900 | – | –
COc1cccc2c1C(=O)c1c(O)c3c(c(O)c1C2=O)C[C@@](O)(C(=O)CO)C[C@@H]3O[C@H]1C[C@H](N)[C@@H](O)[C@H](C)O1 [Epirubicin, epirubicin, reference compound] | – | – | 160 | – | 400 | 2100
CC[C@]1(O)C[C@@H]2CN(CCc3c([nH]c4ccccc34)[C@@](C(=O)OC)(c3cc4c(cc3OC)N(C)[C@H]3[C@@](O)(C(=O)OC)[C@H](OC(C)=O)[C@]5(CC)C=CCN6CC[C@]43[C@@H]65)C2)C1 [Vinblastine, vinblastine] | 8.3 | 0.5 | 1.4 | 100 | – | –
